From patent US6432997B1, “Pyrazole pesticides” (Rhone-Poulenc, Inc., priority 1997, dated 2002)

Tests used:
[1] = test system: southern armyworm, cotton aphid, tobacco budworm and greenbug; test: Systemic tests (soil drench / root uptake, systemic evaluation); assay type: in vivo
Experimental: For southern root-knot nematode and systemic tests for southern armyworm, cotton aphid, tobacco budworm and greenbug, a stock solution or suspension was prepared by adding 15 mg of the test compound to 250 mg of dimethylformamide, 1250 mg of acetone and 3 mg of the emulsifier blend referenced above. Water was then added to provide a test compound concentration of 150 ppm. When necessary, sonication was provided to insure complete dispersion.
Southern armyworm on tomato—systemic evaluation: This test was conducted in conjunction with the southern root-knot nematode evaluation (discussed below). The tomato plants, grown in the soil (at an initial compound test screening rate of 6.6 ppm soil concentration or about 150 ppm solution concentration) for nematode evaluation, were then utilized for evaluation of a compound's uptake via roots and subsequent systemic transport to the tomato foliage. […]
Cotton aphid and tobacco budworm (on cotton) and greenbug and tobacco budworm (on sorghum)—systemic evaluation: A 7.0 ml aliquot of the 150 ppm nematode test solution was applied to deliver the equivalent of 10.0 ppm soil concentration dose as a drench to 6 cm pots containing cotton and sorghum plants. […] Again at six days, the plants were rated for aphid activity and the cotton aphids and greenbugs were counted and mortality was assessed. […] Mortality was assessed six days after infestation. […]

Lucilia sericata = conditions: single species; from WO 92/13451 (Schering Agrochemicals Ltd.); cited from earlier work

| Substance | activity in the systemic tests [1] | activity against Lucilia sericata (Lucilia sericata) |
| --- | --- | --- |
| 5-Amino-1-[2,6-dichloro-4-(trifluoromethyl)phenyl]-4-trifluoromethylsulfinyl-N-hydroxy-N-methyl-1H-pyrazole carboximidamide [Compound 2] | particularly good activity |  |
| 5-chloro-1-[2,6-dichloro-4-(trifluoromethyl)phenyl]-4-(4,5-1H-pyrazole |  | activity against a single species Lucilia sericata |
| 5-Amino-1-[2,6-dichloro-4-(trifluoromethyl)phenyl]-4-methylsulfinyl-N-hydroxy-N-methyl-1H-pyrazole carboximidamide [Compound 1] | particularly good activity |  |
